# Measured values: US20070031504A1, “Microdevices comprising nanocapsules for controlled delivery of drugs and method of manufacturing same” (MIV Therapeutics Inc., priority 2005, published 2007)
# Test: Solubility of paclitaxel in the hydrophilic liquid core solvents
# Settings: solvents such as DMSO and DENA
smiles,measurement,value
CC(=O)O[C@H]1C(=O)[C@@]2(C)[C@H]([C@H](OC(=O)c3ccccc3)[C@]3(O)C[C@H](OC(=O)[C@H](O)[C@@H](NC(=O)c4ccccc4)c4ccccc4)C(C)=C1C3(C)C)[C@]1(OC(C)=O)CO[C@@H]1C[C@@H]2O [paclitaxel],concentration at which the drug may be dissolved in liquid core,10-60 weight percent
